Legend:
[1] = tested on: KG-1a; assay: Cytotoxicity against human KG1a cells assessed as decrease in cell proliferation after 48 hrs by MTT assay; type: functional, cell-based
[2] = tested on: HL-60; assay: Cytotoxicity against human HL60 cells assessed as decrease in cell proliferation after 48 hrs by MTT assay; type: functional, cell-based; conditions: HL-60, 48 h
[3] = tested on: KG-1a; assay: Induction of apoptosis in human KG1a cells assessed as early apoptotic cells at 10 uM after 16 hrs by annexin V-FITC/propidium iodide staining-based flow cytometric method (reference value: 0.113%); type: functional
[4] = tested on: KG-1a; assay: Induction of apoptosis in human KG1a cells assessed as late apoptotic cells at 10 uM after 16 hrs by annexin V-FITC/propidium iodide staining-based flow cytometric method (reference value: 1.01%); type: functional
[5] = tested on: KG-1a; assay: Induction of apoptosis in human KG1a cells assessed as necrotic cells at 10 uM after 16 hrs by annexin V-FITC/propidium iodide staining-based flow cytometric method (reference value: 0.170%); type: functional
[6] = tested on: KG-1a; assay: Induction of apoptosis in human KG1a cells assessed as viable cells at 10 uM after 16 hrs by annexin V-FITC/propidium iodide staining-based flow cytometric method (reference value: 98.7%); type: functional; conditions: read-out: Activity
[7] = tested on: KG-1a; assay: Induction of apoptosis in human KG1a cells assessed as early apoptotic cells at 20 uM after 16 hrs by annexin V-FITC/propidium iodide staining-based flow cytometric method (reference value: 0.113%); type: functional
[8] = tested on: KG-1a; assay: Induction of apoptosis in human KG1a cells assessed as late apoptotic cells at 20 uM after 16 hrs by annexin V-FITC/propidium iodide staining-based flow cytometric method (reference value: 1.01%); type: functional
[9] = tested on: KG-1a; assay: Induction of apoptosis in human KG1a cells assessed as necrotic cells at 20 uM after 16 hrs by annexin V-FITC/propidium iodide staining-based flow cytometric method (reference value: 0.170%); type: functional
[10] = tested on: KG-1a; assay: Induction of apoptosis in human KG1a cells assessed as viable cells at 20 uM after 16 hrs by annexin V-FITC/propidium iodide staining-based flow cytometric method (reference value: 98.7%); type: functional; conditions: read-out: Activity
[11] = Selectivity ratio of IC50 for human KG1a cells to IC50 for human HL60 cells; type: functional

## C=C1C(=O)O[C@H]2[C@H]1CC/C(COC(=O)c1ccc(C(F)(F)F)cc1)=C\CC[C@@]1(C)O[C@@H]21
[1]
  IC50: 4 µM
[2]
  IC50: 2300 nM

## C=C1C(=O)O[C@H]2[C@H]1CC/C(C(=O)N1CCN(C(=O)OC(C)(C)C)CC1)=C\CC[C@@]1(C)O[C@@H]21
[1]
  IC50: 1.7 µM
[2]
  IC50: 5100 nM

## C=C1C(=O)O[C@H]2[C@H]1CC/C(C(=O)N1CCOCC1)=C\CC[C@@]1(C)O[C@@H]21
[1]
  IC50: 29.9 µM
[2]
  IC50: 3900 nM

## C=C1C(=O)O[C@H]2[C@H]1CC/C(C(=O)N1CCCC1)=C\CC[C@@]1(C)O[C@@H]21
[1]
  IC50: 1.8 µM
[2]
  IC50: 4000 nM

## C=C1C(=O)O[C@H]2[C@H]1CC/C(C(=O)OCc1ccccc1)=C\CC[C@@]1(C)O[C@@H]21
[1]
  IC50: 3.3 µM
[2]
  IC50: 2200 nM

## C=C1C(=O)O[C@H]2[C@H]1CC/C(COC(=O)c1cccs1)=C\CC[C@@]1(C)O[C@@H]21
[1]
  IC50: 3.9 µM
[2]
  IC50: 1700 nM

## C=C1C(=O)O[C@H]2[C@H]1CC/C(COC(=O)c1ccccc1C#N)=C\CC[C@@]1(C)O[C@@H]21
[1]
  IC50: 3.3 µM
[2]
  IC50: 1200 nM

## C=C1C(=O)O[C@H]2[C@H]1CC/C(C(=O)N(CCC)CCC)=C\CC[C@@]1(C)O[C@@H]21
[1]
  IC50: 2 µM
[2]
  IC50: 1000 nM

## C=C1C(=O)O[C@H]2[C@H]1CC/C(COCc1ccc(C(F)(F)F)cc1)=C\CC[C@@]1(C)O[C@@H]21
[1]
  IC50: 2.4 µM
[2]
  IC50: 1900 nM

## C=C1C(=O)O[C@H]2[C@H]1CC/C(C(=O)N1CCC(C)CC1)=C\CC[C@@]1(C)O[C@@H]21
[1]
  IC50: 1.6 µM
[2]
  IC50: 6300 nM

## C=C1C(=O)O[C@H]2[C@H]1CC/C(C(=O)N(C)C)=C\CC[C@@]1(C)O[C@@H]21
[1]
  IC50: 6.1 µM
[2]
  IC50: 1300 nM

## C=C1C(=O)O[C@H]2[C@H]1CC/C(c1nc3ccccc3s1)=C\CC[C@@]1(C)O[C@@H]21
[1]
  IC50: 5.1 µM
[2]
  IC50: 8200 nM

## C=C1C(=O)O[C@H]2[C@H]1CC/C(COC(=O)/C=C/C)=C\CC[C@@]1(C)O[C@@H]21
[1]
  IC50: 5.1 µM
[2]
  IC50: 4600 nM

## C=C1C(=O)O[C@H]2[C@H]1CC/C(C(=O)N(CCCC)CCCC)=C\CC[C@@]1(C)O[C@@H]21
[1]
  IC50: 1.4 µM
[2]
  IC50: 3700 nM

## C=C1C(=O)O[C@H]2[C@H]1CC/C(COCc1ccccc1)=C\CC[C@@]1(C)O[C@@H]21
[1]
  IC50: 4.8 µM
[2]
  IC50: 3500 nM

## C=C1C(=O)O[C@H]2[C@H]1CC/C(C(=O)N(CC)CC)=C\CC[C@@]1(C)O[C@@H]21
[1]
  IC50: 4.3 µM
[2]
  IC50: 2700 nM

## C=C1C(=O)O[C@H]2[C@H]1CC/C(COC(=O)c1ccccc1)=C\CC[C@@]1(C)O[C@@H]21
[1]
  IC50: 3.3 µM
[2]
  IC50: 2400 nM

## C=C1C(=O)O[C@H]2[C@H]1CC/C(COCc1ccc(OC)cc1)=C\CC[C@@]1(C)O[C@@H]21
[1]
  IC50: 1.1 µM
[2]
  IC50: 2700 nM

## C=C1C(=O)O[C@H]2[C@H]1CC/C(C(=O)N1CCC(c3ccccc3)CC1)=C\CC[C@@]1(C)O[C@@H]21
[1]
  IC50: 2.2 µM
[2]
  IC50: 2200 nM

## C=C1C(=O)O[C@H]2[C@H]1CC/C(COC(=O)CCCCCC)=C\CC[C@@]1(C)O[C@@H]21
[1]
  IC50: 5.8 µM
[2]
  IC50: 6000 nM

## C=C1C(=O)O[C@H]2[C@H]1CC/C(C(=O)O)=C\CC[C@@]1(C)O[C@@H]21
[1]
  IC50: > 50 µM
[2]
  IC50: > 50000 nM

## C=C1C(=O)O[C@H]2[C@H]1CC/C(COC)=C\CC[C@@]1(C)O[C@@H]21
[1]
  IC50: 2.4 µM
[2]
  IC50: 7700 nM

## C=C1C(=O)O[C@H]2[C@H]1CC/C(COC(=O)c1ccc(C#N)cc1)=C\CC[C@@]1(C)O[C@@H]21
[1]
  IC50: 6.7 µM
[2]
  IC50: 1700 nM

## C=C1C(=O)O[C@H]2[C@H]1CC/C(COC(=O)/C=C/c1ccccc1)=C\CC[C@@]1(C)O[C@@H]21
[1]
  IC50: 0.4 µM
[2]
  IC50: 1100 nM
[3]
  Activity: 0.381%
[4]
  Activity: 22.7%
[5]
  Activity: 1.37%
[6]
  viability at 10 µM: 75.6%
[7]
  Activity: 0.087%
[8]
  Activity: 46.7%
[9]
  Activity: 1.61%
[10]
  viability at 20 µM: 51.6%

## C=C1C(=O)O[C@H]2[C@H]1CC/C(C(=O)N1CCN(C(=O)/C3=C/CC[C@@]4(C)O[C@H]4[C@H]4OC(=O)C(=C)[C@@H]4CC3)CC1)=C\CC[C@@]1(C)O[C@@H]21
[1]
  IC50: > 50 µM
[2]
  IC50: > 50000 nM

## C=C1C(=O)O[C@H]2[C@H]1CC/C(C(=O)N1CCNCC1)=C\CC[C@@]1(C)O[C@@H]21
[1]
  IC50: > 50 µM
[2]
  IC50: > 50000 nM

## C=C1C(=O)O[C@H]2[C@H]1CC/C(C(=O)N1CCCCC1)=C\CC[C@@]1(C)O[C@@H]21
[1]
  IC50: 3.2 µM
[2]
  IC50: 1800 nM

## C=C1C(=O)O[C@H]2[C@H]1CC/C(COC(C)=O)=C\CC[C@@]1(C)O[C@@H]21
[1]
  IC50: 6.3 µM
[2]
  IC50: 2800 nM

## C=C1C(=O)O[C@H]2[C@H]1CC/C(C(=O)OCc1ccc(C(F)(F)F)cc1)=C\CC[C@@]1(C)O[C@@H]21
[1]
  IC50: 2 µM
[2]
  IC50: 1000 nM

## C=C1C(=O)O[C@H]2[C@H]1CC/C(C(=O)OC)=C\CC[C@@]1(C)O[C@@H]21
[1]
  IC50: 5.4 µM
[2]
  IC50: 4900 nM

## C=C1C(=O)O[C@H]2[C@H]1CC/C(COC(=O)C1CCCCC1)=C\CC[C@@]1(C)O[C@@H]21
[1]
  IC50: 8.6 µM
[2]
  IC50: 6700 nM

## C=C1C(=O)O[C@H]2[C@H]1CC/C(COC(=O)c1ccc(OC)cc1)=C\CC[C@@]1(C)O[C@@H]21
[1]
  IC50: 5.3 µM
[2]
  IC50: 2100 nM

## C=C1C(=O)O[C@@H]2C3O[C@]3(C)CC/C=C(\C)CC[C@@H]12 (some centres undefined)
[1]
  IC50: 3.5 µM
[2]
  IC50: 4200 nM
[3]
  Activity: 0.413%
[4]
  Activity: 4.08%
[5]
  Activity: 0.327%
[6]
  viability at 10 µM: 95.2%
[7]
  Activity: 0.336%
[8]
  Activity: 13.1%
[9]
  Activity: 1.81%
[10]
  viability at 20 µM: 84.7%

## C=C1C(=O)O[C@H]2[C@H]1CC/C(C=O)=C\CC[C@@]1(C)O[C@@H]21
[1]
  IC50: 6.3 µM
[2]
  IC50: 9900 nM

## C=C1C(=O)O[C@H]2[C@H]1CC/C(CO)=C\CC[C@@]1(C)O[C@@H]21
[1]
  IC50: 6.8 µM
[2]
  IC50: 10300 nM

## COc1cccc2c1C(=O)c1c(O)c3c(c(O)c1C2=O)C[C@@](O)(C(=O)CO)C[C@@H]3O[C@H]1C[C@H](N)[C@H](O)[C@H](C)O1.Cl [DOXORUBICIN HYDROCHLORIDE]
[1]
  IC50: 0.08 µM
[2]
  IC50: 19 nM
[11]
  Ratio IC50: 4

Reference: ChEMBL document CHEMBL3997783, “Synthesis and anti-acute myeloid leukemia activity of C-14 modified parthenolide derivatives” (Eur J Med Chem, 2017)
